From ChEMBL document CHEMBL5442741, “ASAP - In vitro kinase profile” (2024)
“And” between values parts separate entries of the source, which are not always exact repeats. Equal entries are not always repeated.

What was measured:
[1] = biological target: Tyrosine-protein kinase JAK2 (Homo sapiens) (UniProt O60674); test: Enzymatic radiometric [Km ATP] KinaseProfiler LeadHunter assay, kinase: JAK2, catalogue number: 14-640KP The assay has been performed by Eurofins Discovery.; conditions: ATP concentration 45.0 uM, Test compound concentration 10.0 uM
Chain of Tyrosine-protein kinase JAK2 (Homo sapiens) (O60674 whole entry): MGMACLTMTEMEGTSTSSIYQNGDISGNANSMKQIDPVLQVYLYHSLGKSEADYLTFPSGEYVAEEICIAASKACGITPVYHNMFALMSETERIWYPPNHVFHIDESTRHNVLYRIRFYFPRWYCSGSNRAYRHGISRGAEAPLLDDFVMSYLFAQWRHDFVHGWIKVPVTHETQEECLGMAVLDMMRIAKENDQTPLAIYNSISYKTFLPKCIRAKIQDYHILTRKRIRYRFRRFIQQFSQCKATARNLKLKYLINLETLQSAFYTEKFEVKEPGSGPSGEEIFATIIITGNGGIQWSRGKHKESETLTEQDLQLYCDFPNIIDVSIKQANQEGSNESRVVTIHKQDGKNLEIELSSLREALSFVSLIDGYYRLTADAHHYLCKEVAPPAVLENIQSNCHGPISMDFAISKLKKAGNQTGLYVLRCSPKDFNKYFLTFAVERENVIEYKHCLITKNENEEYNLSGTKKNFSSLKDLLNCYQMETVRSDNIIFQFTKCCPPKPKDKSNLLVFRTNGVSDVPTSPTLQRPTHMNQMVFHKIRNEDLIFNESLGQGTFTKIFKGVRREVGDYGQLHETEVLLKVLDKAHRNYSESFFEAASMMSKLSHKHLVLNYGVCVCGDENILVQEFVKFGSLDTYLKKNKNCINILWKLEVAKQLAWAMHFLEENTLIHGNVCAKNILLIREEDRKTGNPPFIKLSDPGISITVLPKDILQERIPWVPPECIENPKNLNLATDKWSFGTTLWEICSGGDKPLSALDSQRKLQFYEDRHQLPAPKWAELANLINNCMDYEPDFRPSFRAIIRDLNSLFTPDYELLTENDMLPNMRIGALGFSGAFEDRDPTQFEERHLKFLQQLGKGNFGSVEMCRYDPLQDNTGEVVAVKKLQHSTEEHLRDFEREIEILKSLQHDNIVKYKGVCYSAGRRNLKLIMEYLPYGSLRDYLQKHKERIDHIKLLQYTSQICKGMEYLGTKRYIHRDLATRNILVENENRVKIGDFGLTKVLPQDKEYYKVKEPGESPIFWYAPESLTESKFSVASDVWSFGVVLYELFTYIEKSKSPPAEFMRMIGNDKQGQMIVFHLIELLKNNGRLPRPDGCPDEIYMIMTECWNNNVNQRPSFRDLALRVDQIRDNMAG

[2] = biological target: T1, Inhibitor of nuclear factor kappa-B kinase subunit alpha (Homo sapiens) (UniProt O15111); test: Enzymatic radiometric [Km ATP] KinaseProfiler LeadHunter assay, kinase: IKK-alpha, catalogue number: 14-461KP The assay has been performed by Eurofins Discovery.; conditions: ATP concentration 10.0 uM, Test compound concentration 10.0 uM
T1 sequence (whole entry): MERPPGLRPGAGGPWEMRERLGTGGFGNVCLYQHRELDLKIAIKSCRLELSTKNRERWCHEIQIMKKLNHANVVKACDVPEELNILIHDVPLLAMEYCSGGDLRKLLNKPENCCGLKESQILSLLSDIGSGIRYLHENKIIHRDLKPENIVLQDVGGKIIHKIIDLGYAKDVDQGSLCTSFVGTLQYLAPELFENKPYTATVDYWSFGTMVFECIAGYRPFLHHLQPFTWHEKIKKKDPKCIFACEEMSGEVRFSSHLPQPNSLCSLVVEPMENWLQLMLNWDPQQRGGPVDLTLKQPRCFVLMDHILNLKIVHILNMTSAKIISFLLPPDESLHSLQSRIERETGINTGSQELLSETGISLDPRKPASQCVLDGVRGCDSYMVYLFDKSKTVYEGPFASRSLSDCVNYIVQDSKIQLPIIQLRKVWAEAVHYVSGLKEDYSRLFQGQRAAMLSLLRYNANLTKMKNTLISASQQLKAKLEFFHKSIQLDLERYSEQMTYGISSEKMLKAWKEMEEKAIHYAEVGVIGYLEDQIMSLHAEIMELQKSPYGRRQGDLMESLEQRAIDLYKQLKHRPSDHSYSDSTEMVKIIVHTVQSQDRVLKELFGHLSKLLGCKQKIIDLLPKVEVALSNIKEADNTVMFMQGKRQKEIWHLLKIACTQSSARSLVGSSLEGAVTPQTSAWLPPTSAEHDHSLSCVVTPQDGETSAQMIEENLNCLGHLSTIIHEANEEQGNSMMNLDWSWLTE

[3] = biological target: Protein kinase C theta type (Homo sapiens) (UniProt Q04759); test: Enzymatic radiometric [Km ATP] KinaseProfiler LeadHunter assay, kinase: PKC-theta, catalogue number: 14-444KP The assay has been performed by Eurofins Discovery.; conditions: ATP concentration 15.0 uM, Test compound concentration 10.0 uM
Chain of Protein kinase C theta type (Homo sapiens) (Q04759 whole entry, looked up): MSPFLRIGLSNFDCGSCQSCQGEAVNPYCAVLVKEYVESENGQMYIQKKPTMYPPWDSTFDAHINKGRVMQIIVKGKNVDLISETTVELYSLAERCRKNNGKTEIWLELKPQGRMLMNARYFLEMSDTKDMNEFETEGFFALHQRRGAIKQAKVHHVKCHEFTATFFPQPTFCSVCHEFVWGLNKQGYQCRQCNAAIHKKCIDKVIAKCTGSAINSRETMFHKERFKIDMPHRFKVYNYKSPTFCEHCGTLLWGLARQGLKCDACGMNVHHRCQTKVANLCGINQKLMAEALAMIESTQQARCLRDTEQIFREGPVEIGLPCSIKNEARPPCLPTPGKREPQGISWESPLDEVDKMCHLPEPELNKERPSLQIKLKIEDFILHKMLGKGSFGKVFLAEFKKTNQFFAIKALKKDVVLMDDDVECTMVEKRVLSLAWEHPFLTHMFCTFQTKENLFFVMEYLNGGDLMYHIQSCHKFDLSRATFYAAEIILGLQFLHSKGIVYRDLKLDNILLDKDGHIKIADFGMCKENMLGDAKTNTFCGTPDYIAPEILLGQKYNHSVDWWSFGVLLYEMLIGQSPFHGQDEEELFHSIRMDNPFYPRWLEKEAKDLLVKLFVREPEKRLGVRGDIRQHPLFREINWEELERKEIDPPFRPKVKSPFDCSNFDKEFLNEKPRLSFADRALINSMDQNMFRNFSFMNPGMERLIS

[4] = biological target: Platelet-derived growth factor receptor beta (Homo sapiens) (UniProt P09619); test: Enzymatic radiometric [Km ATP] KinaseProfiler LeadHunter assay, kinase: PDGFR-beta, catalogue number: 14-463KP The assay has been performed by Eurofins Discovery.; conditions: ATP concentration 200.0 uM, Test compound concentration 10.0 uM
Chain of Platelet-derived growth factor receptor beta (Homo sapiens) (P09619 whole entry): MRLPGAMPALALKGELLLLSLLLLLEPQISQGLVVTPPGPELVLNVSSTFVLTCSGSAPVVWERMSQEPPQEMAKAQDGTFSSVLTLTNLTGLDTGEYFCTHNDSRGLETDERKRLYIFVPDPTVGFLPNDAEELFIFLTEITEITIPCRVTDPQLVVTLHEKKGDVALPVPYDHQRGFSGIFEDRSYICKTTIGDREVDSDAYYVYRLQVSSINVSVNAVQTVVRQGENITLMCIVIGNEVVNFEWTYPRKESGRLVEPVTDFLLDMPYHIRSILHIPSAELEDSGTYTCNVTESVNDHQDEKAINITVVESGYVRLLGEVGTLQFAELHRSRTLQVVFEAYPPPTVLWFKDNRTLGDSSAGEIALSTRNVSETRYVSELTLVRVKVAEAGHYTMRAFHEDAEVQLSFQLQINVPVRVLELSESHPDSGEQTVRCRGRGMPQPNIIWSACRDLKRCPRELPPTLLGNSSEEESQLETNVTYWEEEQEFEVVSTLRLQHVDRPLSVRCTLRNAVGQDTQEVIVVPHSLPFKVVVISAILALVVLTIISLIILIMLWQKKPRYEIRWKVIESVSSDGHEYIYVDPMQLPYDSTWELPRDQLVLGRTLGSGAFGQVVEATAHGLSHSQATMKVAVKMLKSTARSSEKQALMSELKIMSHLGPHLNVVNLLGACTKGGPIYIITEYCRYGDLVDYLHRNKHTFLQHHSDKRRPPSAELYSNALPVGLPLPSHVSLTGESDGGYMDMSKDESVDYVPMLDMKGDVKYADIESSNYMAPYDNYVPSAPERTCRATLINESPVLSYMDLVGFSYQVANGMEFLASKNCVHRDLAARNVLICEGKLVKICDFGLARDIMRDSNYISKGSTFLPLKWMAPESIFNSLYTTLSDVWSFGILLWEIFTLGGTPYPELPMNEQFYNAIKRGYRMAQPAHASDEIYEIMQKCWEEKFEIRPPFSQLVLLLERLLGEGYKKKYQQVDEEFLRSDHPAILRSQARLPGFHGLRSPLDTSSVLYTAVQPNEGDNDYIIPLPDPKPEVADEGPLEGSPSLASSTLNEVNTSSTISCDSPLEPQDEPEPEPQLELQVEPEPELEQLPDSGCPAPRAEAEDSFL

[5] = biological target: Vascular endothelial growth factor receptor 2 (Homo sapiens) (UniProt P35968); test: Enzymatic radiometric [Km ATP] KinaseProfiler LeadHunter assay, kinase: KDR, catalogue number: 14-630KP The assay has been performed by Eurofins Discovery.; conditions: ATP concentration 90.0 uM, Test compound concentration 10.0 uM
[6] = biological target: CDK7/Cyclin H/MNAT1 (Homo sapiens) (UniProt P51946+P50613+P51948); test: Enzymatic radiometric [Km ATP] KinaseProfiler LeadHunter assay, kinase: CDK7/cyclinH/MAT1, catalogue number: 14-476KP The assay has been performed by Eurofins Discovery.; format: protein-complex assay; conditions: ATP concentration 90.0 uM, Test compound concentration 10.0 uM
[7] = biological target: RAC-alpha serine/threonine-protein kinase (Homo sapiens) (UniProt P31749); test: Enzymatic radiometric [Km ATP] KinaseProfiler LeadHunter assay, kinase: PKB-alpha, catalogue number: 14-276KP The assay has been performed by Eurofins Discovery.; conditions: ATP concentration 155.0 uM, Test compound concentration 10.0 uM
Chain of RAC-alpha serine/threonine-protein kinase (Homo sapiens) (P31749 whole entry, canonical isoform): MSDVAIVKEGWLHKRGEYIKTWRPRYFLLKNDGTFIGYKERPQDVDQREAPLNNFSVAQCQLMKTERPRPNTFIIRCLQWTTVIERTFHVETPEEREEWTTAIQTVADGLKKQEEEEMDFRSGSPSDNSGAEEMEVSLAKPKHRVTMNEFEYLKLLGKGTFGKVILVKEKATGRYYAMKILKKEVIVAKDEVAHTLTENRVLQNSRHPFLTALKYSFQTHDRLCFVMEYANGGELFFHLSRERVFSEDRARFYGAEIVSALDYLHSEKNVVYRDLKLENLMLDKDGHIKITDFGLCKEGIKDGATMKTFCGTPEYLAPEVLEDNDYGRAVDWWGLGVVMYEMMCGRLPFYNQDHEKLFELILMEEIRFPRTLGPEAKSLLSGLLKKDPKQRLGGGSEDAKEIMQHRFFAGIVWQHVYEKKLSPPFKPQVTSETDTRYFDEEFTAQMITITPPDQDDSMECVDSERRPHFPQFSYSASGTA

[8] = biological target: Phosphatidylinositol 4,5-bisphosphate 3-kinase catalytic subunit gamma isoform (Homo sapiens) (UniProt P48736); test: Enzymatic radiometric [Km ATP] KinaseProfiler LeadHunter assay, kinase: PI3 Kinase (p120-gamma), catalogue number: 14-558KP The assay has been performed by Eurofins Discovery.; conditions: ATP concentration 100.0 uM, Test compound concentration 10.0 uM
[9] = biological target: T2, Aurora kinase A (Homo sapiens) (UniProt O14965); test: Enzymatic radiometric [Km ATP] KinaseProfiler LeadHunter assay, kinase: Aurora-A, catalogue number: 14-511KP The assay has been performed by Eurofins Discovery.; conditions: ATP concentration 15.0 uM, Test compound concentration 10.0 uM
T2 sequence (whole entry): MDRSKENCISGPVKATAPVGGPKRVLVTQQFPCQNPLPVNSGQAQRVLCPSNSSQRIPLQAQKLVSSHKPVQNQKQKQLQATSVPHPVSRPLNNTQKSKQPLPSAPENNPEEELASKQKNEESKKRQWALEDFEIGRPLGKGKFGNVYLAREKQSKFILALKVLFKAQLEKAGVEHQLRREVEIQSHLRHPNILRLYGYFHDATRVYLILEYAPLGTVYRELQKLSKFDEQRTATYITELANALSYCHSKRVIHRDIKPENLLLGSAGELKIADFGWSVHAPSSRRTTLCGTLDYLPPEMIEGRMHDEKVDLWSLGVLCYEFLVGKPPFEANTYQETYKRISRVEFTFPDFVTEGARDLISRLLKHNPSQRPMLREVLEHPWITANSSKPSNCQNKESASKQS

[10] = biological target: Rho-associated protein kinase 1 (Homo sapiens) (UniProt Q13464); test: Enzymatic radiometric [Km ATP] KinaseProfiler LeadHunter assay, kinase: ROCK-I, catalogue number: 14-601KP The assay has been performed by Eurofins Discovery.; conditions: ATP concentration 70.0 uM, Test compound concentration 10.0 uM
Chain of Rho-associated protein kinase 1 (Homo sapiens) (Q13464 2-1354 limits assumed): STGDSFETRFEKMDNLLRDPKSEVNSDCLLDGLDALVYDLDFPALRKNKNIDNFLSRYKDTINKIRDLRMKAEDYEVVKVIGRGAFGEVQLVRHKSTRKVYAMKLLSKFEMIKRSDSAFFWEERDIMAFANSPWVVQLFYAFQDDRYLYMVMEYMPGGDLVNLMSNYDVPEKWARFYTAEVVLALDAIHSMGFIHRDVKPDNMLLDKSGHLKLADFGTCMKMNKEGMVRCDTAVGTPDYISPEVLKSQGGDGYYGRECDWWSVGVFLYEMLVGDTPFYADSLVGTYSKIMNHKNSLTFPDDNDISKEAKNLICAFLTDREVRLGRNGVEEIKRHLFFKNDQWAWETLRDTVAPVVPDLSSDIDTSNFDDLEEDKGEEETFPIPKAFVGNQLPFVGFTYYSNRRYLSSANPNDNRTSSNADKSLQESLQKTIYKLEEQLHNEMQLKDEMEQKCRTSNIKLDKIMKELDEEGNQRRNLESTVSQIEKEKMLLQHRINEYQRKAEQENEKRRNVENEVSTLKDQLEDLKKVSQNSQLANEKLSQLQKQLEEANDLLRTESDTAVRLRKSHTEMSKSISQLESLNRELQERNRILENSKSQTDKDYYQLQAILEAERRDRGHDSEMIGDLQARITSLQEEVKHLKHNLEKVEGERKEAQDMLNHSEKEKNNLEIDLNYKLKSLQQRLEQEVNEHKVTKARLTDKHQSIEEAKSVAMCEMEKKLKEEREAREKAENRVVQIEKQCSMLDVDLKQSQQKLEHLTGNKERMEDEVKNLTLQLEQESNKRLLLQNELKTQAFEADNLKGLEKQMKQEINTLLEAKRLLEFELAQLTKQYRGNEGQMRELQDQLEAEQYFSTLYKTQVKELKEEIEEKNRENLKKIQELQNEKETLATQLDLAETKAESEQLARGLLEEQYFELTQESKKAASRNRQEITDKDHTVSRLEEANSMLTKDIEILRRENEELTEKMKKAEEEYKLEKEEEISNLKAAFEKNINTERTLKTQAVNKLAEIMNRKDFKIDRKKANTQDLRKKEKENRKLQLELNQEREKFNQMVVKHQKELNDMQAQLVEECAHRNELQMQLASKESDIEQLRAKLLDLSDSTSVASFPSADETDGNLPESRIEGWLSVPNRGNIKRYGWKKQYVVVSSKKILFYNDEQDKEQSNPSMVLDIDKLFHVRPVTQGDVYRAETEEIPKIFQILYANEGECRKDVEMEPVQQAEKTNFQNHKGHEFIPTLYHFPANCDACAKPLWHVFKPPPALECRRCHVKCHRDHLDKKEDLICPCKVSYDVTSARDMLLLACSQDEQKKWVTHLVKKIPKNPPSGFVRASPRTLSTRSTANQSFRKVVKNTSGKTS

[11] = biological target: T3, Serine/threonine-protein kinase Chk1 (Homo sapiens) (UniProt O14757); test: Enzymatic radiometric [Km ATP] KinaseProfiler LeadHunter assay, kinase: CHK1, catalogue number: 14-346KP The assay has been performed by Eurofins Discovery.; conditions: ATP concentration 90.0 uM, Test compound concentration 10.0 uM
T3 sequence (whole entry): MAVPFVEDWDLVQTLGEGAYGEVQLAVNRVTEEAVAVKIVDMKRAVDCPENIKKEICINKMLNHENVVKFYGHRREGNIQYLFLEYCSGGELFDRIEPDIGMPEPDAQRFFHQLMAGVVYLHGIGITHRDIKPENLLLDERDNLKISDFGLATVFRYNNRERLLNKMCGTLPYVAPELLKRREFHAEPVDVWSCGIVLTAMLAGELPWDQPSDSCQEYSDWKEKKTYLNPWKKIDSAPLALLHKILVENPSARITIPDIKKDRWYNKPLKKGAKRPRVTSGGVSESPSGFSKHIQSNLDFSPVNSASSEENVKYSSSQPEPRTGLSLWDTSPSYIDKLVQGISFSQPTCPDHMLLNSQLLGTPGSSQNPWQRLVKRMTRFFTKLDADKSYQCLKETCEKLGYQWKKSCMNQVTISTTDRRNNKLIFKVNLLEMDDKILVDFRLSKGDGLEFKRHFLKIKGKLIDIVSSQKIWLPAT

[12] = biological target: Ephrin type-A receptor 5 (Homo sapiens) (UniProt P54756); test: Enzymatic radiometric [Km ATP] KinaseProfiler LeadHunter assay, kinase: EphA5, catalogue number: 14-639KP The assay has been performed by Eurofins Discovery.; conditions: ATP concentration 10.0 uM, Test compound concentration 10.0 uM

SMILES | Activity [1] | Activity [2] | Activity [3] | Activity [4] | Activity [5] | Activity [6] | Activity [7] | Activity [8] | Activity [9] | Activity [10] | Activity [11] | Activity [12]
CNC(=O)Cn1cc(-c2cc3c(N[C@@H](c4ccc5c(c4)S(=O)(=O)CCC5)C(C)C)ncnc3[nH]2)cn1 | 94% | 84% | 91% | 90% | 91% | 95% | 95% | 93% | 77% | 104% | 107% | 80%
CC(C)[C@@H](Nc1ncnc2[nH]c(C(=O)N[C@@H]3CCN(C)C3)cc12)c1ccc2c(c1)S(=O)(=O)CCC2 | 106% | 82% | 102% | 83% | 96% | 101% | 88% | 97% | 97% | 98% | 118% | 100%
CC(C)[C@@H](Nc1ncnc2[nH]ccc12)c1ccc2c(c1)S(=O)(=O)CCC2 | 110% | 91% | 101% | 99% | 82% | 85% | 96% | 103% | 57% | 110% | 84% | 110%
COc1ccc([C@@H](Cc2nnn[nH]2)NC(=O)c2ncnc3[nH]ccc23)cc1 | 102% | 99% | 90% | 102% | 79% | 91% | 94% | 89% | 71% | 93% | 95% | 106%
CC(C)[C@H](Nc1ncnc2[nH]ccc12)c1ccc2c(c1)S(=O)(=O)CCC2 | 99% | 92% | 88% | 89% | 86% | 89% | 95% | 98% | 51% | 115% | 110% | 102%
CC(C)[C@@H](Nc1ncnc2[nH]c(-c3cnn(C)c3C#N)cc12)c1ccc2c(n1)OCCO2 | 101% and 123% | 111% and 104% | 93% and 111% | 108% and 93% | 80% and 86% | 101% and 102% | 95% and 94% | 63% and 78% | 44% and 58% | 93% and 107% | 108% and 120% | 91% and 90%
CC(C)[C@H](Nc1ncnc2[nH]c(-c3cnn(C)c3C#N)cc12)c1ccc2c(n1)OCCO2 | 115% | 120% | 96% | 92% | 76% | 98% | 90% | 80% | 53% | 115% | 119% | 102%
Cn1ncc(-c2cc3c(N[C@@H](c4ccc5c(n4)OCCO5)C(C)(C)C)ncnc3[nH]2)c1C#N | 140% | 125% | 96% | 100% | 83% | 108% | 103% | 88% | 95% | 129% | 125% | 102%
CNCc1cc(-c2cc3c(N[C@@H](c4ccc5c(c4)S(=O)(=O)CCC5)C(C)C)ncnc3[nH]2)co1 | 114% | 79% | 106% | 89% | 88% | 100% | 96% | 96% | 73% | 102% | 111% | 78%
Cc1nn(C)cc1-c1cc2c(N[C@H](c3ccc4c(c3)S(=O)(=O)CCC4)C(C)C)ncnc2[nH]1 | 111% | 94% | 106% | 97% | 88% | 93% | 91% | 96% | 55% | 103% | 102% | 74%
COc1ccc([C@H](Cc2nnn[nH]2)NC(=O)c2ncnc3[nH]ccc23)cc1 | 116% | 98% | 91% | 103% | 97% | 107% | 97% | 88% | 84% | 103% | 110% | 102%
C[C@H](C(=O)O)[C@@H](NC(=O)c1ncnc2[nH]ccc12)c1ccc(Br)cc1 | 99% | 99% | 100% | 110% | 77% | 99% | 95% | 97% | 72% | 90% | 99% | 99%
